This note sets out measurements from PubChem BioAssay (NCI).

Some test systems named below: HCT-116 colon; HOP-92 NSCLC; M19-MEL melanoma; OVCAR-8 ovarian; SF-295 CNS; SK-OV-3 ovarian; SN12C renal; SNB-75 CNS; UACC-257 melanoma; LXFL 529 NSCLC.
Assay in all cases: inhibition of tumour cell growth, NCI panel, 48 h

Molecules are shown by their SMILES. Several values for one entry are separate records, joined by “and”; a condition that tells them apart may be missing. Equal values may be shown once.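 Exposure lasted 48 hours, with cells grown in 96-well plates and compounds tested at five concentrations. GI50 marks 50% less growth. Definition used: TGI = concentration required for complete inhibition of growth.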

`C[CH2][Ge]1([CH2]C)[CH2]CC2(CCN(CCCN(C)C)C2)C[CH2]1`: the GI50 with HCT-116 colon is 1.45 µM; in the test with HOP-92 NSCLC it was 0.201 µM and 1 µM; in the test on M19-MEL melanoma, 1.47 µM; in the test with OVCAR-8 ovarian, 1.7 µM and 1.25 µM; with SF-295 CNS, 1.7 µM and 2.42 µM; with SK-OV-3 ovarian it was 2.64 µM and 3.59 µM. Moreover, the GI50 is 1.38 µM in the test with SN12C renal; 0.175 µM and 1.48 µM in the test with SNB-75 CNS; 1.31 µM with UACC-257 melanoma. The TGI is 2.79 µM and 1 µM in the test with HCT-116 colon; 1.65 µM and 1.34 µM in the test with HOP-92 NSCLC; 2.63 µM in the test with M19-MEL melanoma; 4.05 µM and 1.73 µM in the test with OVCAR-8 ovarian; 3.17 µM and 3.67 µM in the test with SF-295 CNS; 6.11 µM and 9.62 µM with SK-OV-3 ovarian. Moreover, the TGI is 4.62 µM with SN12C renal; 1.84 µM and 3.24 µM in the test with SNB-75 CNS; 2.64 µM with UACC-257 melanoma.
As for `CC(=O)OC12CCCCC1C1(CCCC1)NC2=O` (centres undefined), the TGI with HCT-116 colon, with LXFL 529 NSCLC, in the test on M19-MEL melanoma, in the test with OVCAR-8 ovarian, in the test with SF-295 CNS and with SK-OV-3 ovarian was over 100 µM in each case. The TGI with SN12C renal, in the test with SNB-75 CNS and in the test on UACC-257 melanoma was over 100 µM in each case.
Turning to `COc1cccc2c1C(=N)c1c(O)c3c(c(O)c1C2=O)C[C@@](O)(C(C)=O)C[C@@H]3OC1CC(N)C(O)C(C)O1` (some centres undefined), the TGI in the test on HCT-116 colon was 1.77 µM and 2.53 µM and 10.4 µM; in the test on HOP-92 NSCLC, 2.71 µM and 3.58 µM; in the test on LXFL 529 NSCLC it was 3.54 µM; with M19-MEL melanoma it was 2.15 µM and 2.64 µM; in the test on OVCAR-8 ovarian it was 2.62 µM and 3.56 µM; in the test with SK-OV-3 ovarian it was 1.85 µM and 4.8 µM and 13.6 µM. The TGI in the test on SN12C renal is 1.28 µM and 1.92 µM and 2.23 µM; in the test with UACC-257 melanoma it was 5.01 µM and 12.1 µM and 6.67 µM.
Take `O=C1c2ccccc2CC1C1(O)C(=O)Nc2c(Cl)cc(Cl)cc21` (centres undefined): the TGI with HOP-92 NSCLC, with LXFL 529 NSCLC, with OVCAR-8 ovarian, in the test with SF-295 CNS, in the test with SK-OV-3 ovarian and with SN12C renal was over 100 µM throughout. Moreover, the TGI in the test with SNB-75 CNS and with UACC-257 melanoma was over 100 µM each time.
Consider `O=S(O)CCCSSCCCCSSCCCS(=O)O`, for which the TGI with HCT-116 colon, with LXFL 529 NSCLC, with M19-MEL melanoma, with OVCAR-8 ovarian, in the test on SF-295 CNS and with SK-OV-3 ovarian was over 100 µM throughout. The TGI with SN12C renal, in the test with SNB-75 CNS and in the test on UACC-257 melanoma was over 100 µM in each case.
Take `COC(=O)c1c(OC(=O)c2ccccc2)noc1CC(=O)OC1C=CCCC1` (centres undefined): the TGI in the test with HCT-116 colon, in the test with LXFL 529 NSCLC, with OVCAR-8 ovarian, in the test with SK-OV-3 ovarian, in the test on SN12C renal and with SNB-75 CNS was over 100 µM in each case. The molecule further gave a TGI with UACC-257 melanoma of over 100 µM.
As to `O=C(Nc1cccc(Cl)c1)c1cc2cc(N=Nc3ccc(Br)cc3)ccc2oc1=O`, the TGI with HCT-116 colon was over 100 µM; in the test on HOP-92 NSCLC, over 100 µM; with LXFL 529 NSCLC, 30.5 µM; in the test on OVCAR-8 ovarian, over 100 µM; with SF-295 CNS, over 100 µM; with SK-OV-3 ovarian, over 100 µM. The TGI in the test with SN12C renal, in the test on SNB-75 CNS and in the test with UACC-257 melanoma was over 100 µM throughout.
For the molecule `COc1ccc2nccc(C3OC(=O)N4CCC(=O)CC34)c2c1` (centres undefined), the TGI in the test on HCT-116 colon, in the test on HOP-92 NSCLC, in the test on LXFL 529 NSCLC, with M19-MEL melanoma, with OVCAR-8 ovarian and with SF-295 CNS was over 100 µM throughout. The TGI in the test with SN12C renal and in the test on UACC-257 melanoma was over 100 µM each time.
With `Cn1cc(C2=C(c3cn(CCCSC(=N)N)c4ccccc34)C(=O)NC2=O)c2ccccc21`, the GI50 with HCT-116 colon is 1.1 µM; in the test with HOP-92 NSCLC, 3.83 µM; in the test on OVCAR-8 ovarian, 4 µM; in the test with SF-295 CNS, 5.19 µM; in the test with SK-OV-3 ovarian, 5 µM; with SN12C renal, 1.83 µM. The GI50 in the test on SNB-75 CNS was 0.674 µM; with UACC-257 melanoma it was 3.22 µM. Further, the TGI came to 4.62 µM with HCT-116 colon; 11.2 µM with HOP-92 NSCLC; 11.4 µM in the test with OVCAR-8 ovarian; 14.1 µM in the test with SF-295 CNS; 15.4 µM in the test with SK-OV-3 ovarian; 5.56 µM in the test on SN12C renal. Further, the TGI with SNB-75 CNS turned out to be 4.33 µM; with UACC-257 melanoma, 6.73 µM.
For the molecule `O=C1/C(=C/c2ccc([N+](=O)[O-])s2)Oc2ccc(Cl)cc21`, the GI50 is 0.222 µM in the test with HCT-116 colon; 0.176 µM in the test on HOP-92 NSCLC; 0.33 µM in the test on OVCAR-8 ovarian; 0.999 µM in the test with SF-295 CNS; 2.1 µM in the test with SK-OV-3 ovarian; 0.593 µM with SN12C renal. Moreover, the GI50 in the test on SNB-75 CNS is 0.486 µM; in the test on UACC-257 melanoma, 0.63 µM. Besides, the TGI stood at 0.535 µM in the test on HCT-116 colon; 0.519 µM in the test with HOP-92 NSCLC; 4.91 µM with OVCAR-8 ovarian; 2.98 µM in the test with SF-295 CNS; 4.42 µM in the test with SK-OV-3 ovarian; 1.79 µM with SN12C renal. Also, the TGI with SNB-75 CNS came to 1.74 µM; with UACC-257 melanoma, 2.25 µM.
`COC(=O)c1cc2c([nH]c3ccccc32)c(-c2nc3cc(N(S(=O)(=O)c4ccc(C)cc4)S(=O)(=O)c4ccc(C)cc4)c(OC)cc3cc2CO)n1`: the GI50 in the test with HCT-116 colon, in the test on HOP-92 NSCLC, in the test on OVCAR-8 ovarian, in the test on SF-295 CNS, in the test on SK-OV-3 ovarian and in the test on SN12C renal was over 100 µM throughout. The results for the GI50 in the test on SNB-75 CNS and in the test on UACC-257 melanoma were 33.5 µM and over 100 µM, respectively. The TGI with HCT-116 colon, in the test with HOP-92 NSCLC, in the test with OVCAR-8 ovarian, in the test with SF-295 CNS, in the test on SK-OV-3 ovarian and in the test with SN12C renal was over 100 µM in each case. In addition, the TGI is 98.7 µM with SNB-75 CNS and over 100 µM in the test on UACC-257 melanoma.
`N#Cc1ccccc1C#C/C=C\C#Cc1cnccn1`: the GI50 with HCT-116 colon was 12.5 µM; in the test on OVCAR-8 ovarian it was 33.9 µM; in the test with SF-295 CNS, 6 µM; in the test on SK-OV-3 ovarian, 52.7 µM; in the test on SN12C renal it was 13.8 µM; in the test on SNB-75 CNS, over 73.9 µM. In the test on UACC-257 melanoma, the GI50 is 26.5 µM. Besides, the TGI in the test with HCT-116 colon is over 100 µM; with HOP-92 NSCLC, over 28.4 µM; in the test with OVCAR-8 ovarian, 98.4 µM; in the test on SF-295 CNS, over 25 µM; in the test on SK-OV-3 ovarian it was over 100 µM; in the test on SN12C renal, 41.5 µM. The TGI with SNB-75 CNS was over 100 µM; in the test with UACC-257 melanoma it was over 82.3 µM.
